Assay results as given in ChEMBL document CHEMBL3272004, “Dibenz[b,e]oxepinalkanoic acids as nonsteroidal antiinflammatory agents. 3. omega-(6,11-Dihydro-11-oxodibenz[b,e]oxepin-2-yl)alkanoic acids” (J Med Chem, 1977).
The source made the active and inactive calls. The calls are words filed in the database; no cut-off is given here.

The molecules below were run on Rattus norvegicus (assay: Antiinflammatory activity in po dosed Wistar rat assessed as inhibition of carrageenan-induced paw edema administered 1 hr prior to carrageenan challenge measured after 3 hrs of carrageenan challenge). Settings: not given.
Type: functional
In the case of O=C(O)CCCc1ccc(OCc2ccccc2C(=O)O)cc1, the inhibition is reported as “inactive”. O=C(O)CCCCCCCc1ccc(OCc2ccccc2C(=O)O)cc1 was tested, and the inhibition was “inactive”. O=C(O)CCCCCCCc1ccc2c(c1)C(=O)c1ccccc1CO2 was tested, and the ED50 was 11.7 mg/kg. O=C(O)Cc1ccc2c(c1)C(=O)c1ccccc1CO2 [ISOXEPAC] was tested, and the ED50 was 6.4 mg/kg. COc1ccc2c(c1)c(CC(=O)O)c(C)n2C(=O)c1ccc(Cl)cc1 [INDOMETHACIN] was tested, and the ED50 was 4.4 mg/kg. O=C(O)CCCc1ccc2c(c1)C(=O)c1ccccc1CO2 was tested, and the ED50 was 10.1 mg/kg. In the case of O=C(O)CCc1ccc(OCc2ccccc2C(=O)O)cc1, the inhibition is reported as “inactive”. O=C(O)CCCCCc1ccc(OCc2ccccc2C(=O)O)cc1 was tested, and the inhibition was “inactive”. Molecule O=C(O)CCCCCc1ccc2c(c1)C(=O)c1ccccc1CO2 has an ED50 of 18.2 mg/kg.

The molecules below were run on Rattus norvegicus (assay: Induction of carrageenan-induced paw edema in Wistar rat administered 1 hr prior to carrageenan challenge measured at 50 mg/kg, po after 3 hrs of carrageenan challenge relative to vehicle-treated control). Settings: in vivo.
Type: organism-based
Design: dose 50 mg/kg, route oral
O=C(O)CCc1ccc2c(c1)C(=O)c1ccccc1CO2 was tested, and the Activity was 11%.

Each molecule was assayed on Rattus norvegicus (assay: Antiinflammatory activity in Wistar rat assessed as inhibition of carrageenan-induced paw edema administered 1 hr prior to carrageenan challenge measured at 25 mg/kg, po after 3 hrs of carrageenan challenge relative to vehicle-treated control). Settings: not given.
Type: functional
In the case of CC(C)OC(=O)CCCc1ccc2c(c1)C(=O)c1ccccc1CO2, the inhibition in vivo at 25 mg/kg is reported as 43.7%. With COC(=O)CCCc1ccc2c(c1)C(=O)c1ccccc1CO2 the inhibition in vivo at 25 mg/kg was 31.7%.
